Measurements reported in patent publication US8455475B2 (Gruenenthal GmbH, priority 2009, dated 2013).

Key:
[1] = target: T1, rat B1R (bradykinin receptor 1) (Rattus norvegicus, UniProt P97583); assay: FLIPR Ca2+ assay (Fluo-4) on CHO K1 cells stably transfected with the B1R gene of the rat (rB1R cells): % inhibition at 10 μM / IC50, agonist Des-Arg9-bradykinin; assay type: cell-based; conditions: for inhibition at 10 µM: CHO-K1, rat B1R
T1 construct: expressed in transfected cells; host or cells: CHO K1 cells
T1 sequence (P97583 1-337): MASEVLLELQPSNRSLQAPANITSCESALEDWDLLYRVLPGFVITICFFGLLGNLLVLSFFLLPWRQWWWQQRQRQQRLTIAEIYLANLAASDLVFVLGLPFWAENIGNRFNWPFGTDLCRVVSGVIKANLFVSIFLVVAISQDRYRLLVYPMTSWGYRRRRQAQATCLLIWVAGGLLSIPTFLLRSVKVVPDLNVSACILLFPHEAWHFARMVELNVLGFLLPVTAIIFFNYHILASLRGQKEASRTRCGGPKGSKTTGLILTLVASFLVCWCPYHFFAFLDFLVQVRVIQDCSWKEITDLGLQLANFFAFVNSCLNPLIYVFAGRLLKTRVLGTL
Outline: (§1)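 Loading with Fluo-4 occurs for 60 min at 37 °C, or alternatively in buffer A, before FLIPR measurement. Compounds are applied, incubated 10–20 min, and then the EC80 agonist is added. Antagonism appears as reduced peak Ca2+ signal relative to maximal inhibition.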

[2] = target: T2, human B1R (bradykinin receptor 1) (Homo sapiens, UniProt P46663); assay: FLIPR Ca2+ assay (Fluo-4) on CHO K1 cells stably transfected with the human B1R gene (hB1R cells): % inhibition at 10 μM / IC50, agonist Lys-Des-Arg9-bradykinin; assay type: cell-based; conditions: for inhibition at 10 µM: CHO-K1, human B1R
T2 construct: expressed in transfected cells; host or cells: CHO K1 cells
T2 sequence (P46663 1-353): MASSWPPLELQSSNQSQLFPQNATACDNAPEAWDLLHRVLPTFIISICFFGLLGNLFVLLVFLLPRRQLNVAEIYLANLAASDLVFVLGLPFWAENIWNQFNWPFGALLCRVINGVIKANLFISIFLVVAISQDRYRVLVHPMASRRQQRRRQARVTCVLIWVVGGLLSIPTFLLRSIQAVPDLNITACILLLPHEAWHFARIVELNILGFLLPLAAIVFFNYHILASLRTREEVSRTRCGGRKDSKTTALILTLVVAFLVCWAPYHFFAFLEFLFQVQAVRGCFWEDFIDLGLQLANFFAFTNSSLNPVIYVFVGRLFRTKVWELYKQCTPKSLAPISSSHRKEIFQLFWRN
Outline: as §1

Row | SMILES | inhibition at 10 µM [1] | inhibition at 10 µM [2] | % Inhibition (rat B1R) at 10 μM ([1]; rat B1R, 10 µM) | % Inhibition (human B1R) at 10 μM ([2]; human B1R, 10 µM)
1 | CC1(C)CC(NC(=O)c2ccccc2Cl)c2cc(C(=O)N3CCC4(CCN(c5ccncc5)CC4)C3)ccc21 (stereo not shown) [Example H-132, 2-Chloro-N-[3,3-dimethyl-6-(8-pyridin-4-yl-3,8-diazaspiro[4.5]decane-3-carbonyl)-1,2-dihydro-inden-1-yl]-benzamide] | 102% | 100% |  | 
2 | CC1(C)CC(NC(=O)NCc2ccccc2Cl)c2cc(C(=O)N3CCC4(CC3)CCN(c3ccncc3)CC4)ccc21 (stereo not shown) [Ind_CC-061, 1-[(2-chlorophenyl)-methyl]-3-[3,3-dimethyl-6-(9-pyridin-4-yl-3,9-diazaspiro[5.5]undecane-3-carbonyl)-1,2-dihydro-inden-1-yl]-urea] | 103% | 100% |  | 
3 | CC1(C)CC(NC(=O)/C=C/c2ccccc2Cl)c2cc(C(=O)N3CCC4(CC3)CCN(c3ccncc3)CC4)ccc21 (stereo not shown) [Ind_CC-060, (E)-3-(2-chlorophenyl)-N-[3,3-dimethyl-6-(9-pyridin-4-yl-3,9-diazaspiro[5.5]undecane-3-carbonyl)-1,2-dihydro-inden-1-yl]-acrylamide] | 94% | 93% |  | 
4 | O=C(NC1CCc2ccc(C(=O)N3CCC4(CC3)CCN(c3ccc(C(F)(F)F)cc3)CC4)cc21)c1ccc(F)cc1Cl (stereo not shown) [IND_CC-274, 2-Chloro-4-fluoro-N-[6-[9-[4-(trifluoromethyl)-phenyl]-3,9-diazaspiro[5.5]undecane-3-carbonyl]-2,3-dihydro-1H-inden-1-yl]-benzamide] | 102% | 8% |  | 
5 | O=C(N[C@@H]1CCc2ccc(C(=O)N3CCC4(CCN(c5ccncc5)CC4)C3)cc21)c1c(Cl)cccc1Cl [Example H-99, 2,6-Dichloro-N-[(1R)-6-(8-pyridin-4-yl-3,8-diazaspiro[4.5]decane-3-carbonyl)-2,3-dihydro-1H-inden-1-yl]-benzamide] | 105% | 100% |  | 
6 | CC(C)CC(=O)N[C@@H]1CCc2ccc(C(=O)N3CCC4(CCN(c5ccncc5)CC4)C3)cc21 [Example H-143, 3-Methyl-N-[(1R)-6-(8-pyridin-4-yl-3,8-diazaspiro[4.5]decane-3-carbonyl)-2,3-dihydro-1H-inden-1-yl]-butyramide] | 105% | 100% |  | 
7 | O=C(NC1CCc2ccc(C(=O)N3CCC4(CC3)CCN(c3ccncc3)CC4)cc21)c1cccc(C(F)(F)F)c1Cl (stereo not shown) [IND_CC-232, 2-Chloro-N-[6-(9-pyridin-4-yl-3,9-diazaspiro[5.5]undecane-3-carbonyl)-2,3-dihydro-1H-inden-1-yl]-3-(trifluoromethyl)-benzamide] | 101% | 96% |  | 
8 | COc1cc(C)c(S(=O)(=O)NC2CCc3ccc(C(=O)N4CCC5(CC4)CCN(c4ccncc4)CC5)cc32)c(C)c1 (stereo not shown) [Example H-03, 4-methoxy-2,6-dimethyl-N-[6-(9-pyridin-4-yl-3,9-diazaspiro[5.5]undecane-3-carbonyl)-2,3-dihydro-1H-inden-1-yl)-benzenssulfonic acid amide] |  |  | 104% | 98%
9 | O=C(NC1CCc2ccc(C(=O)N3CCC4(CCN(c5ccncc5)C4)C3)cc21)c1ccccc1Cl (stereo not shown) [Example H-04, 2-chloro-N-[6-(8-pyridin-4-yl-3,8-diazaspiro[4.4]nonane-3-carbonyl)-2,3-dihydro-1H-inden-1-yl]-benzamide] | 106% | 100% |  | 
10 | CC(C)(C)CC(=O)N1CCC2(CC1)CCN(C(=O)c1ccc3c(c1)C(NC(=O)c1ccccc1Cl)CC3)C2 (stereo not shown) [IND_CC-574, 2-Chloro-N-[6-[8-(3,3-dimethyl-butanoyl)-2,8-diazaspiro[4.5]decane-2-carbonyl]-2,3-dihydro-1H-inden-1-yl]-benzamide] | 101% | 14% |  | 
11 | Cn1cncc1CN1CCC2(CC1)CCN(C(=O)c1ccc3c(c1)C(NC(=O)c1ccccc1Cl)CC3)CC2 (stereo not shown) [IND_CC-526, 2-Chloro-N-[6-[9-[(3-methyl-3H-imidazol-4-yl)-methyl]-3,9-diazaspiro[5.5]undecane-3-carbonyl]-2,3-dihydro-1H-inden-1-yl]-benzamide] | 87% | 25% |  | 
12 | Cc1ccc2n1C(=O)N([C@@H]1CCc3ccc(C(=O)N4CCC5(CCN(c6ccncc6)CC5)C4)cc31)C2 [Example H-134, 5-Methyl-2-[(1R)-6-(8-pyridin-4-yl-3,8-diazaspiro[4.5]decane-3-carbonyl)-2,3-dihydro-1H-inden-1-yl]-1,2-dihydro-pyrrolo[2.1-e]imidazol-3-one] | 103% | 99% |  | 
13 | O=C(Cc1ccccc1Cl)NC1CCc2ccc(C(=O)N3CCC4(CC3)CCN(c3ccncc3)C4)cc21 (stereo not shown) [Ind_CC-045, 2-(2-chlorophenyl)-N-[6-(2-pyridin-4-yl-2,8-diazaspiro[4.5]decane-8-carbonyl)-2,3-dihydro-1H-inden-1-yl]-acetamide] | 101% | 100% |  | 
14 | CN([C@@H]1CCc2ccc(C(=O)N3CCC4(CCN(c5ccncc5)CC4)C3)cc21)S(=O)(=O)c1ccccc1Cl [Example H-136, 2-Chloro-N-methyl-N-[(1R)-6-(8-pyridin-4-yl-3,8-diazaspiro[4.5]decane-3-carbonyl)-2,3-dihydro-1H-inden-1-yl]-benzenesulfonic acid amide] | 101% | 99% |  | 
15 | O=C(N[C@@H]1CCc2ccc(C(=O)N3CCC4(CCC(C(=O)N5CCn6ncnc6C5)CC4)CC3)cc21)c1ccccc1Cl [Example H-97, 2-Chloro-N-[(1R)-6-[9-(5,6,7,8-tetrahydro-[1,2,4]triazolo[1,5-a]pyrazine-7-carbonyl)-3-azaspiro[5.5]undecane-3-carbonyl]-2,3-dihydro-1H-inden-1-yl]-benzamide] | 90% | 6% |  | 
16 | CC1(C)Cc2ccc(C(=O)N3CCC4(CC3)CCN(c3ccncc3)CC4)cc2C1NC(=O)c1ccc(F)cc1Cl (stereo not shown) [IND_CC-275, 2-Chloro-N-[2,2-dimethyl-6-(9-pyridin-4-yl-3,9-diazaspiro[5.5]undecane-3-carbonyl)-1,3-dihydro-inden-1-yl]-4-fluoro-benzamide] | 107% | 100% |  | 
17 | COc1cc(C)c(C(=O)NC2CCc3ccc(C(=O)N4CCC5(CC4)CCC(c4ccc(F)cc4)(N(C)C)CC5)cc32)c(C)c1 (stereo not shown) [Ind_CC-093, N-[6-[9-dimethylamino-9-(4-fluorophenyl)-3-azaspiro[5.5]undecane-3-carbonyl]-2,3-dihydro-1H-inden-1-yl]-4-methoxy-2,6-dimethyl-benzamide] | 74% | 34% |  | 
18 | O=C(N[C@@H]1CCCc2ccc(C(=O)N3CCC4(CC3)CCN(c3ccncc3)CC4)cc21)c1ccccc1Cl [Example H-09, 2-chloro-N-[(1R)-7-(9-pyridin-4-yl-3,9-diazaspiro[5.5]undecane-3-carbonyl)-1,2,3,4-tetrahydro-naphthalen-1-yl]-benzamide] | 102% | 100% |  | 
19 | Cc1ncccc1C(=O)N[C@@H]1CCc2ccc(C(=O)N3CCC4(CCN(c5ccncc5)CC4)C3)cc21 [Example H-114, 2-Methyl-N-[(1R)-6-(8-pyridin-4-yl-3,8-diazaspiro[4.5]decane-3-carbonyl)-2,3-dihydro-1H-inden-1-yl]-pyridine-3-carboxylic acid amide] | 102% | 100% |  | 
20 | COc1ccc2cc(C(=O)N[C@@H]3CCc4ccc(C(=O)N5CCC6(CCN(c7ccncc7)CC6)C5)cc43)ccc2c1 [Example H-56, 6-Methoxy-N-[(1R)-6-(8-pyridin-4-yl-3,8-diazaspiro[4.5]decane-3-carbonyl)-2,3-dihydro-1H-inden-1-yl]-naphthalene-2-carboxylic acid amide] | 68% | 94% |  | 
21 | O=C(N[C@@H]1CCc2ccc(C(=O)N3CCC4(CC3)CCN(c3ccncc3)C4)cc21)c1c(Cl)cccc1C(F)(F)F [Example H-83, 2-Chloro-N-[(1R)-6-(3-pyridin-4-yl-3,8-diazaspiro[4.5]decane-8-carbonyl)-2,3-dihydro-1H-inden-1-yl]-6-(trifluoromethyl)-benzamide] | 105% | 100% |  | 
22 | CN1CCC(N2CCC3(CCN(C(=O)c4ccc5c(c4)[C@H](NC(=O)c4ccccc4Cl)CC5)CC3)CC2)CC1 [Example H-28, 2-chloro-N-[(1R)-6-[9-(1-methyl-piperidin-4-yl)-3,9-diazaspiro[5.5]undecane-3-carobnyl]-2,3-dihydro-1H-inden-1-yl]-benzamide] | 102% | 57% |  | 
23 | CC1(C)CC(NC(=O)c2ccccc2Cl)c2cc(C(=O)N3CCC4(CC3)CCN(c3ccncc3)CC4)ccc21 (stereo not shown) [IND_CC-292, 2-Chloro-N-[3,3-dimethyl-6-(3-pyridin-4-yl-3,9-diazaspiro[5.5]undecane-9-carbonyl)-1,2-dihydro-inden-1-yl]-benzamide] | 105% | 99% |  | 
